From patent publication US8586033B2, “Integrin αIIbβ3 specific antibodies and peptides” (The Scripps Research Institute, priority 2003, dated 2013)
Entries after “also recorded” stand apart in the source; their conditions may differ. Where a SMILES comes first, the peptide text is derived from it. Bridges are numbered along the chain shown (N, C = ends). [ ]: non-standard residue; d: D form. hArg = N=C(N)NCCCC[C@H](N)C(=O)O; Mpa = O=C(O)CCS

Columns and labels:
[1] = biological target: T1, interaction of human fibrinogen and human integrin αIIbβ3 (Homo sapiens, UniProt P05106+P08514); experiment: Fibrinogen binding inhibition assay (competitive ELISA)
T1 construct: purchased Enzyme Research Laboratories (South Bend, Ind.)
Method: Wells of a Costar 3690 96-well plate were coated with 100 ng of integrin αIIbβ3 in 50 μl metal buffer at 4° C. overnight. The plate was washed twice with water and blocked with 160 μl of 3% (w/v) skim milk in TBS for 1 h at 37° C. […] The final concentrations were adjusted between 1.3×10^−8 M and 8.0×10^−7 M of Fabs and between 8.9×10^−8 M and 9.1×10^−5 M of synthetic peptides. After incubation for 2 h at 37° C. followed by ten times washing with water and five times washing with 0.05% Tween20 in TBS, 50 μl of 0.5 μg/ml streptavidine-HRP (Pierce) diluted in 3% (w/v) skim milk in TBS was added and incubated for 1 h at 37° C. After washing as above, 50 μl of ABTS substrate solution (Barbas, C. F., 3rd, Burton, D. R., Scott, J. K., and Silverman, G. J. (2001) Phage Display: A Laboratory Manual, Cold Spring Harbor Laboratory Press, Cold Spring Harbor, N.Y.) was added. This experiment was repeated three times at each concentration to get the mean value and standard deviation.

human platelets [2] = experiment: Platelet aggregation assay ex vivo (ADP-induced, lumi-aggregometer); type: cell-based; conditions: ADP 20 μM; for inhibition of platelet aggregation at 90 μM: peptide 90 μM
Method: Peripheral human blood was collected as described above. Platelet-rich plasma (PRP) was obtained from the collected peripheral blood by centrifugation at 135 g for 15 min. Subsequent centrifugation at 1,500 g for 15 min yielded platelet-poor plasma (PPP). By mixing PRP and PPP, conditioned plasma of 300,000-350,000 platelets per 1 μl of plasma was prepared. […] The platelet aggregation assay was done as described previously (Klinkhardt, U., Kirchmaier, C. M., Westrup, D., Breddin, H. K., Mahnel, R., Graff, J., Hild, M., and Harder, S. (2000) Differential in vitro effects of the platelet glycoprotein IIb/IIIa inhibitors abxicimab or SR121566A on platelet aggregation, fibrinogen binding and platelet secretory parameters. Thromb Res 97, 201-207) using a whole blood lumi-aggregometer (Chrono-log, Havertown, Pa.). The impedance of each sample was monitored until a stable baseline was established (<5 mV drift per minute). To induce platelet aggregation, 9 μl of an ADP solution was added to reach a final concentration of 20 μM. Increase in impedance across a pair of electrodes over time was transmitted through an interface to a personal computer for analysis (AGGRO/LINK, Chrono-log).

integrin αIIbβ3 = integrin αIIbβ3 (Homo sapiens, UniProt P05106+P08514); experiment: Inhibition of binding of selected RAD antibodies to integrin by peptides
[3] = test system: integrins αIIbβ3, αvβ3 and αMβ2; conditions: cited from earlier work
[4] = human, in vivo; cited from earlier work
human platelets [5] = experiment: Flow cytometry, Fab binding to cells; type: cell-based; conditions: Fab 0.2 μM, peripheral blood
Method: (§1) Peripheral blood was drawn from a healthy volunteer and collected in an ACD tube (Becton Dickinson, San Jose, Calif.). HUVEC were treated for 5 min with 0.05% (w/v) trypsin, 0.53 mM EDTA (Life Technologies), collected by centrifugation at 500 g for […], and resuspended in 1% (w/v) BSA in PBS (phosphate buffered saline). […] After incubation for 40 min at room temperature followed by washing twice with 1% (w/v) BSA in PBS, 10 μl of FITC conjugated anti-human IgG polyclonal antibodies (Sigma-Aldrich) diluted in 750 μl of 1% (w/v) BSA in PBS was added and incubated for 20 min at room temperature. After washing twice with 1% (w/v) BSA in PBS, flow cytometry was performed using a FACStar instrument from Becton Dickinson (San Jose, Calif.).

HUVEC cells = experiment: Flow cytometry, Fab binding to cells; type: cell-based, human; conditions: Fab 0.2 μM; HUVEC mainly express integrin αvβ3
Method: as §1

platelets = conditions: aggregation induced at 5 μM ADP; read-out: previously reported EC50 of platelet aggregation inhibition; cited from earlier work

Compound	inhibition of the interaction between integrin αIIbβ3 and fibrinogen (in words) [1]	inhibition of platelet aggregation ex vivo (in words) (human platelets [2])	inhibition of platelet aggregation at 90 μM (human platelets [2])	inhibition of the binding of the selected RAD antibodies to integrin αIIbβ3 (integrin αIIbβ3)	reported integrin specificity / cross-reactivity [3]	further results
CC(C)[C@H](N)C(=O)N[C@H](C(=O)N[C@H]1CSSC[C@@H](C(=O)O)NC(=O)[C@H](CCCNC(=N)N)NC(=O)[C@H](CCCNC(=N)N)NC(=O)[C@H](CC(=O)O)NC(=O)[C@H](C)NC(=O)[C@H](CCCNC(=N)N)NC1=O)C(C)C (H-VVCRADRRC-OH; disulfide 3-9; N-terminus and C-terminus assumed)	inhibited; also recorded: strongly inhibited	inhibited; also recorded: strongly inhibited	completely inhibited	inhibited	–	–
CC(C)[C@H](N)C(=O)N[C@@H](Cc1c[nH]c2ccccc12)C(=O)N[C@H]1CSSC[C@@H](C(=O)O)NC(=O)[C@H](CCCNC(=N)N)NC(=O)[C@H](CCCCN)NC(=O)[C@H](CC(=O)O)NC(=O)[C@H](C)NC(=O)[C@H](CCCNC(=N)N)NC1=O (H-VWCRADKRC-OH; disulfide 3-9; N-terminus and C-terminus assumed)	inhibited; also recorded: strongly inhibited	inhibited; also recorded: strongly inhibited	completely inhibited	inhibited	–	–
CC(C)[C@H](N)C(=O)N[C@@H](Cc1c[nH]c2ccccc12)C(=O)N[C@H]1CSSC[C@@H](C(=O)O)NC(=O)[C@H](CCCNC(=N)N)NC(=O)[C@H](CCCNC(=N)N)NC(=O)[C@H](CC(=O)O)NC(=O)[C@H](C)NC(=O)[C@H](CCCNC(=N)N)NC1=O (H-VWCRADRRC-OH; disulfide 3-9; N-terminus and C-terminus assumed)	inhibited; also recorded: strongly inhibited	inhibited; also recorded: strongly inhibited	completely inhibited	inhibited	–	inhibition of platelet aggregation at 9 μM (human platelets [2]; peptide 9 μM): the only peptide to inhibit platelet aggregation
N=C(N)NCCCC[C@@H]1NC(=O)CCSSC[C@@H](C(N)=O)NC(=O)[C@@H]2CCCN2C(=O)[C@H](Cc2c[nH]c3ccccc23)NC(=O)[C@H](CC(=O)O)NC(=O)CNC1=O [eptifibatide] ([Mpa][hArg]GDWPC-NH2; disulfide 1-7)	–	–	–	–	αIIbβ3-specific	incidence of thrombocytopenia versus placebo [4]: approximately the same
CCCCS(=O)(=O)N[C@@H](Cc1ccc(OCCCCC2CCNCC2)cc1)C(=O)O [tirofiban]	–	–	–	–	αIIbβ3-specific	–
Abciximab: chimeric Fab with mouse variable and human constant domains, integrin αIIbβ3 inhibitor	–	–	–	–	cross-react with integrin αvβ3 and αMβ2	binding to human platelets (flow cytometry) (human platelets [5]): bound to both platelets and HUVEC cells; binding to HUVEC cells (flow cytometry) (HUVEC cells): bound to both platelets and HUVEC cells; EC50 (human platelets [2]; conditioned plasma, read-out: EC50, required concentration for 50% inhibition in a human platelet aggregation assay): 45 nM; EC50 (platelets): 34 nM; occurrence of thrombocytopenia after the second administration [4]: 4%
THSDARRRE (inversed RAD motif peptide) [control peptide with an inversed RAD motif, reference compound]	did not inhibit	–	–	–	–	–
THSRADRRE (listed as Homo sapiens) [linear nonapeptide derived from HCDR3 of clone RAD1]	did not inhibit and not	not	–	–	–	–
VVCDARRRC (inversed RAD motif peptide) [control peptide with an inversed RAD motif, reference compound]	did not inhibit	–	–	–	–	–
